Where two headings read alike, the source gives them in different places.
Experiments:
[1] = test system: Ube3a−/+ mice (mouse model of AS); assay: Contextual fear conditioning (CFC) in AS mice; type: in vivo; conditions: s.c. injection 20 min before training, test 24 h after training
Method: (§1) FIG. 1. IGF-2 reverses most behavioral deficits observed in a mouse model of AS. Experimental timelines are shown above graphs. In all experiments mice received a s.c. injection of either vehicle or IGF-2 (↑) 20 min before either training or testing. All data are expressed as the mean±s.e.m. N=8-12 per group. Two-way analysis of variance (ANOVA) followed by Bonferroni post-hoc tests. *P<0.05, **P<0.01, ***P<0.001. (A) Percentage of time spent freezing before (Pre-US) or after (Post-US) the shock delivery during contextual fear conditioning training and at testing at 24 hours (h) after training (Test) of normal mice (wild type, WT), which served as controls and Ube3a−/+ mice (mouse model of AS, also referred to as mice) injected with vehicle or IGF-2. (B) Percent exploration preference for a novel object compared to a familiar object during novel object recognition of WT and Ube3a−/+ mice injected with vehicle or IGF-2, 20 min before training, tested at 4 h and 24 h after training. […]
As measures of learning/cognitive responses, which are known to be altered in Angelman Syndrome (AS), we tested different types of aversive and non-aversive memories. […] We tested memory retention one day later (a time that is used to measure long-term memory) by placing mice back in the same chamber and measured their fear-related (freezing) behavior.

[2] = test system: Ube3a−/+ (AS) mice; assay: Spontaneous alternation in three-arm Y-maze in AS mice; type: in vivo; conditions: s.c. injection 20 min before test (M6P 850 μg/kg)
Method: as §1, with “training. (C) Percent of correct alternations (% Correct) in a Y-maze of WT and Ube3a−/+ mice injected with vehicle or IGF-2 before testing (Test).” for “training.”
FIG. 5. […] Data are expressed as the mean±s.e.m. […] Data are expressed as the mean (±s.e.m.). […] Hindlimb clasping scores are measured and expressed as following: If the hindlimbs are consistently splayed outward, away from the abdomen, it is assigned a score of 0. […]

[3] = test system: WT (Control) mice; assay: Novel object recognition (nOR) in WT mice; type: in vivo
Method: (§2) FIG. 1. IGF-2 reverses most behavioral deficits observed in a mouse model of AS. Experimental timelines are shown above graphs. In all experiments mice received a s.c. injection of either vehicle or IGF-2 (↑) 20 min before either training or testing. All data are expressed as the mean±s.e.m. N=8-12 per group. Two-way analysis of variance (ANOVA) followed by Bonferroni post-hoc tests. *P<0.05, **P<0.01, ***P<0.001. (A) Percentage of time spent freezing before (Pre-US) or after (Post-US) the shock delivery during contextual fear conditioning training and at testing at 24 hours (h) after training (Test) of normal mice (wild type, WT), which served as controls and Ube3a−/+ mice (mouse model of AS, also referred to as mice) injected with vehicle or IGF-2. (B) Percent exploration preference for a novel object compared to a familiar object during novel object recognition of WT and Ube3a−/+ mice injected with vehicle or IGF-2, 20 min before training, tested at 4 h and 24 h after training. (C) Percent of correct alternations (% Correct) in a Y-maze of WT and Ube3a−/+ mice injected with vehicle or IGF-2 before testing (Test). (D) Latency to fall off from a rotating rod by WT and Ube3a−/+ mice injected with vehicle or IGF-2, 20 min before Test, and tested again 3 and 7 days later. (E) Time spent burying marbles by WT and Ube3a−/+ mice injected with vehicle or IGF-2, 20 min before Test. (F) Time spent in the center of an open field by WT and Ube3a−/+ mice following a vehicle or IGF-2 injection given 20 min before Test. The bars for each set from left to right are: WT Vehicle, WT IGF-2, Ube3a−/+ Vehicle, and Ube3a−/+ IGF-2.
(§3) FIG. 5. M6P reverses cognitive and motor deficits in AS mice. Experimental timelines are shown above graphs. In all experiments mice received a s.c. injection of either vehicle or 850 μg/Kg of M6P (IGF-2R.L1 or L1)(↑) 20 min before either training or testing. (A) Percent exploration preference for a novel object compared to a familiar object during the nOR paradigm of WT (Control) and Ube3a−/+(AS) mice injected with vehicle or IGF-2R.L1 20 min before training, and tested at 4 h and 24 h after training. N=4/group. Data are expressed as the mean±s.e.m. Two-way analysis of variance (ANOVA) followed by Bonferroni post-hoc tests. *P<0.05, **P<0.01, ***P<0.001. (B) Percent of correct alternations (% Correct) in a Y-maze of WT and AS mice injected with vehicle or M6P before testing (Test). Data are expressed as the mean (±s.e.m.). (C) Hindlimb clasping scores of WT and AS mice injected with vehicle or IGF-2R.L1, 20 min before Test. Hindlimb clasping scores are measured and expressed as following: If the hindlimbs are consistently splayed outward, away from the abdomen, it is assigned a score of 0. If one hindlimb is retracted toward the abdomen for more than 50% of the time suspended, it receives a score of 1. If both hindlimbs are partially retracted toward the abdomen for more than 50% of the time suspended, it receives a score of 2. If its hindlimbs are entirely retracted and touching the abdomen for more than 50% of the time suspended, it receives a score of 3. Data are expressed in scores. B and C: N=8-14 per group. Two-way analysis of variance (ANOVA) followed by Tukey post-hoc tests. *P<0.05, **P<0.01, ***P<0.001.
FIG. 6. PnM6P reverses memory and motor deficits in AS mice. Experimental timelines are shown above graphs. […] Data are expressed as the % mean±s.e.m. […]

[4] = target: IGF-2 receptor (Homo sapiens, UniProt P11717); conditions: cited from earlier work
IGF-2 receptor, sequence (P11717 41-2491): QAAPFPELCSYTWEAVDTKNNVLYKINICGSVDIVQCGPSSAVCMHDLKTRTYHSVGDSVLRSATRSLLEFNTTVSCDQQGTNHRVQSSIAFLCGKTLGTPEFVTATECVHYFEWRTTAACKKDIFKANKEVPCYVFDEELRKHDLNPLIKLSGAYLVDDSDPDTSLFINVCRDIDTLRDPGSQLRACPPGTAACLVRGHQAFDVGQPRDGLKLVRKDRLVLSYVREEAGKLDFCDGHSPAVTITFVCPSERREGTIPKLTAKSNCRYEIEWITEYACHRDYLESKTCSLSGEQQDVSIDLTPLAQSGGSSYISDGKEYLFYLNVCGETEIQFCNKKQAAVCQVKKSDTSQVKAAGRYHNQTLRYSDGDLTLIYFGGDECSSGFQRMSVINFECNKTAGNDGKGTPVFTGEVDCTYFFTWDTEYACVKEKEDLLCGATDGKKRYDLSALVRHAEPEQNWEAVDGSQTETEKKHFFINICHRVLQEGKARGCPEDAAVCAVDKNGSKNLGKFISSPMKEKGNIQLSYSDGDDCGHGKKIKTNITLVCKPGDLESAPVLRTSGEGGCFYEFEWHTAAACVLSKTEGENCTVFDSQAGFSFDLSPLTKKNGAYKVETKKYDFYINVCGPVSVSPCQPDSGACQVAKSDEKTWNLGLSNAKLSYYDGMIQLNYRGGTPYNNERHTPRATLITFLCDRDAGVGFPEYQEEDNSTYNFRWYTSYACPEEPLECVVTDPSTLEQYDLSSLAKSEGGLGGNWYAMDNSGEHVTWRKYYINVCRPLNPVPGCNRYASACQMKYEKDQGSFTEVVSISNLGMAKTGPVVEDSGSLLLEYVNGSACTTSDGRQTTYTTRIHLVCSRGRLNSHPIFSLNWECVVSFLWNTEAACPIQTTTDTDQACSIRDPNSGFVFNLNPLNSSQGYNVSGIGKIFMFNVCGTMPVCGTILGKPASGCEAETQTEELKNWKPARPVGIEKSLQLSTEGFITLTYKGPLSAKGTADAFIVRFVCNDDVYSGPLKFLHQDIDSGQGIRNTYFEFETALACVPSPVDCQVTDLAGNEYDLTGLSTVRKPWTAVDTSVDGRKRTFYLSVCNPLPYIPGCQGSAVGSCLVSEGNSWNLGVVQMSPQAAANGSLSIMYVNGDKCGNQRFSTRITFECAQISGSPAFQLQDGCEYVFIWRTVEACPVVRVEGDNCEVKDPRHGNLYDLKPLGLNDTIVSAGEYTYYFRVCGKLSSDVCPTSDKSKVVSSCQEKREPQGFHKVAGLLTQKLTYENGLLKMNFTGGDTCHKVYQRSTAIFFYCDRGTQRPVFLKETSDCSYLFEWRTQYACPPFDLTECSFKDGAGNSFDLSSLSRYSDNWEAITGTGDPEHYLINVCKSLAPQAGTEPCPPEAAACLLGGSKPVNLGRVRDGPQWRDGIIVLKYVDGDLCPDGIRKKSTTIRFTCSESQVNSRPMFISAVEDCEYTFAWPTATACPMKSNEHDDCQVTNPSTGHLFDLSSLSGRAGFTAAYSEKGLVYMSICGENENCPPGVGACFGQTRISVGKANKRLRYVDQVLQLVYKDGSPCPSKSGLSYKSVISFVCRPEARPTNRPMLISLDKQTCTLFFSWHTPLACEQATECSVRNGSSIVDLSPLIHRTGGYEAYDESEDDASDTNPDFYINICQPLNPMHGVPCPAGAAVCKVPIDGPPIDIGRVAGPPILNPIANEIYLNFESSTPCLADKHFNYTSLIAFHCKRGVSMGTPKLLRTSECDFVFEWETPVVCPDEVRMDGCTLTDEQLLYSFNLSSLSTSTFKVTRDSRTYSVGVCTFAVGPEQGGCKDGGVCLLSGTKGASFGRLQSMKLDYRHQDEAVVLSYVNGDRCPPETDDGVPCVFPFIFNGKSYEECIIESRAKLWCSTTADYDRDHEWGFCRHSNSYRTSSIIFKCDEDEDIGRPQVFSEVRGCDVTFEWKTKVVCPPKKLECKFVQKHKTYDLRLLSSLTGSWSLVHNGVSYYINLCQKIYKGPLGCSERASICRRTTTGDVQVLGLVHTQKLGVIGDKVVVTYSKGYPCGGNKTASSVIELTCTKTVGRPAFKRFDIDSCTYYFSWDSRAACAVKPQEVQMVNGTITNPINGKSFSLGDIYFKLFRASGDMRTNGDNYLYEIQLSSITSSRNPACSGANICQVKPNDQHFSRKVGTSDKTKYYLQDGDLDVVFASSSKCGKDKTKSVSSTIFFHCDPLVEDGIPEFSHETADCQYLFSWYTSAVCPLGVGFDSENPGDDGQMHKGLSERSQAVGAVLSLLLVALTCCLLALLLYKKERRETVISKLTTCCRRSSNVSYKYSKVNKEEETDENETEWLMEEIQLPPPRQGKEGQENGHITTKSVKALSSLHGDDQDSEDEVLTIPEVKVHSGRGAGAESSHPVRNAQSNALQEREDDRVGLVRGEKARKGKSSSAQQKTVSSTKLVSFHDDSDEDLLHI

[5] = test system: Ube3a−/+ (AS) mice; assay: Novel object recognition (nOR) in AS mice; type: in vivo
Method: as §2, §3
FIG. 6. PnM6P reverses memory and motor deficits in AS mice. Experimental timelines are shown above graphs. In all experiments mice received a s.c. injection of either vehicle or 850 μg/Kg of phosphonate-M6P (PnM6P) called IGF-2R.L2 (or L2) (↑) 20 min before either training or testing. (A) Percent exploration preference for a novel object compared to a familiar object during the nOR paradigm of WT (Control) and Ube3a−/+ (AS) mice injected with vehicle or L2 before training, and tested at 4 h, 24 h and 5 days (5 d) after training. N=4/group. Data are expressed as the % mean±s.e.m. (B). […]

[6] = test system: Ube3a−/+ (AS) mice; assay: Open field (center entry, anxiety-like behavior) in AS mice; type: in vivo; conditions: s.c. injection 20 min before test
Method: as §1, with “training. (C) Percent of correct alternations (% Correct) in a Y-maze of WT and Ube3a−/+ mice injected with vehicle or IGF-2 before testing (Test).” for “training.”
To measure the effect of IGF-2 on anxiety-like behavior we employed open field and measured center entry (which measures anxiety behavior): No effect of IGF-2 treatment was found on AS mice, which remained altered compared to the behavior of normal mice (FIG. 1F).

[7] = test system: Ube3a−/+ (AS) mice; assay: RotaRod test (accelerating rotating rod) in AS mice; type: in vivo; conditions: s.c. injection 20 min before test (L2 850 μg/kg)
Method: as §1, with “training. (C) Percent of correct alternations (% Correct) in a Y-maze of WT and Ube3a−/+ mice injected with vehicle or IGF-2 before testing (Test).” for “training.”
(§4) FIG. 6. […] Data are expressed as the % mean±s.e.m. […]
AS is also associated with robust motor impairments, which again are reproduced in the AS mice. Motor coordination and ability is reliably assessed in mice by placing them on an accelerating rotating rod (RotaRod test). […]

[8] = test system: Ube3a−/+ (AS) mice; assay: Marble-burying test in AS mice; type: in vivo; conditions: s.c. injection 20 min before test
Method: as §2, with “(F) Time spent in the center of an open field by WT and Ube3a−/+ mice following a vehicle or IGF-2 injection given 20 min before Test. The bars for each set from left to right are: WT Vehicle, WT IGF-2, Ube3a−/+ Vehicle, and Ube3a−/+ IGF-2.” left out

[9] = test system: Ube3a−/+ (AS) mice; assay: Hindlimb clasping in AS mice; type: in vivo; conditions: 850 μg/kg s.c. 20 min before test
Method: as §3, with “If both hindlimbs are partially retracted toward the abdomen for more than 50% of the time suspended, it receives a score of 2. If its hindlimbs are entirely retracted and touching the abdomen for more than 50% of the time suspended, it receives a score of 3. Data are expressed in scores. B and C: N=8-14 per group. Two-way analysis of variance (ANOVA) followed by Tukey post-hoc tests. *P<0.05, **P<0.01, ***P<0.001.” left out
as §4
L2 injection reversed motor deficits as measured by hindlimb clasping.

[10] = s.c. injection 20 min before training (M6P and L2 850 μg/kg), test 24 h after training
[11] = s.c. injection 20 min before training (M6P and L2 850 μg/kg), test 4 h after training
[12] = L2 850 μg/kg s.c. before training, 5 d test

Molecule	Freezing (long-term memory retention) in contextual fear conditioning [1]	Correct alternations in Y-maze (exploratory strategy/working memory) [2]	Exploration preference for novel object (nOR memory) [3, 10]	Kd ([4]; Williams et al., Science 2012, read-out: Kd for IGF-2 receptor) [nM]	Exploration preference for novel object (nOR memory) [5, 11]	Exploration preference for novel object (nOR memory) [5, 10]	Open field center entry (anxiety-like behavior) [6]	Latency to fall off rotating rod (motor ability) [7]	Marble burying (time spent burying) [8]	Hindlimb clasping score (motor deficit) [9]	Kd ([4]; one of the two known binding sites, Olson et al., J. Biol. Chem. 2004, read-out: Affinity for IGF-2 receptor) [nM]	Kd ([4]; other of the two known binding sites, Olson et al., J. Biol. Chem. 2004, read-out: Affinity for IGF-2 receptor) [nM]	Exploration preference for novel object (nOR memory) [3, 12]	Exploration preference for novel object (nOR memory) ([3]; s.c. injection 20 min before training (L2 850 μg/kg), test 4 h after training)	Exploration preference for novel object (nOR memory) [5, 12]
IGF-2: insulin-like growth factor 2 (IGF-2 or IGF-II), IGF-2 receptor agonist ligand	completely reversed the memory impairment of AS mice	reverses the repetitive, inflexible behavior	significant preference for a novel object	40 to 60	completely reversed the memory deficits of AS mice	significant preference for a novel object	No effect	significant improvement in motor ability	rescued the deficits of the AS mice	–	–	–	–	–	–
O=P(O)(O)OCC1OC(O)C(O)C(O)C1O (stereo not drawn) [M6P, mannose-6-phosphate]	–	completely reversed the deficit	significant memory retention	–	reversed memory deficits in AS mice	significant memory retention	–	–	–	significantly reduced hind limb clasping	~1	~1000	–	–	–
COC1OC(CCP(=O)(OCOC(=O)OC(C)C)OCOC(=O)OC(C)C)C(O)C(O)C1O [L2, Methyl 6-Deoxy-6-diisopropyloxycarbonyloxy-methyl-phosphinylmethyl-α-D-mannopyranoside]	–	–	showed significant memory compared to vehicle-injected groups	–	significantly reversed the deficit of AS mice in nOR	showed significant memory compared to vehicle-injected groups	–	significantly improved their motor ability on the RotaRod	–	returned their hindlimb clasping behavior to control levels	–	–	none of the groups (vehicle or L2 injected) showed significant memory	significantly enhanced nOR memory retention in WT mice	none of the groups (vehicle or L2 injected) showed significant memory

From patent US12083139B2, “Use of IGF-2 receptor agonist ligands for treatment of Angelman Syndrome and autism” (New York University, priority 2018, dated 2024)
